Source: patent US9645154B2, “Method for detecting cancer cell” (ARKRAY, Inc., priority 2010, dated 2017)

Tests used:
Blood cells = assay: Aminolevulinic acid (with FeCl2 and ascorbic acid at the same concentration) labeling, fluorescence microscopy image analysis (false-positive/negative rate); format: cell-based, human
From the text: Blood was collected from a human subject using a vacuum blood collection tube (with EDTA•2K). Blood cells were separated using HetaSep (STEMCELL Technologies) in accordance with manufacturer's instructions.
When performing the hemolyzing treatment, the collected blood cell fraction was hemolyzed using ammonium chloride (STEMCELL Technologies) at room temperature according to the manufacture's manuals.
The number of the cells was counted using a hemacytometer in accordance with the conventional method, and then 10^5 to 10^6 cells per sample (cell suspension) was aliquoted. The sample was centrifuged to remove the supernatant. Subsequently, aminolevulinic acid 5-AMINOLEVULINATE HYDROCHLORIDE (trade name, Cosmo Bio Co., Ltd., at the final concentration given in Table 7 or 8) dissolved in Dulbecco's PBS (+) and FeCl2 and ascorbic acid having the same concentration as that of aminolevulinic acid, respectively, were added thereto, and the cells were suspended well. The number of the cells was adjusted, and then the cells were added dropwise to a 384-well plate. The plate was centrifuged to spin down the cells. The image was captured with a fluorescence microscope (Nikon Corp.).
The wavelengths for the fluorescence filter set: EX (excitation wavelength): 402±7.5, DM: 430 or longer, BA (fluorescence wavelength): 625±15.
The acquired images were analyzed using an image analysis software NIS-ELEMENTS (trade name, Nikon Corp.) to evaluate the fluorescence intensity of the cell.

[1] = system: human breast adenocarcinoma cells (MCF-7); assay: Fluorescence values of cell suspension reacted with aminolevulinic acid (i-densy); format: cell-based; conditions: 1 mM, 37° C.
From the text: In accordance with the conventional method, human breast adenocarcinoma cells (cell line name: MCF-7; DS Pharma Biomedical Co., Ltd.) in culture was harvested with trypsin (Invitrogen). The cancer cell suspension harvested was centrifuged, and the supernatant was removed. The cells were resuspended with Dulbecco's PBS (+) (Nissui Pharmaceutical Co., Ltd.) and centrifuged, and the supernatant was removed again.
The number of the cells was counted using a hemacytometer in accordance with the conventional method, and then 2.8×10^5 cells per sample was aliquoted. […]
The fluorescence values of the cell suspension were measured using an i-densy (ARKRAY, Inc) at 15 minutes, 30 minutes, 60 minutes and 90 minutes after the start of the reaction. Conditions for fluorescence value measurement are as follows: 40° C. in the temperature regulated and light-intensity mode, Gain “3”, LED1 (390±20 nm for excitation)—PD3 (642.5±57.5 nm for detection).
In FIG. 7, the vertical axis represents fluorescence values, and the horizontal axis represents the reaction time. The solid squares represent fluorescence values obtained from the sample using Dulbecco's PBS (−) containing no Mg and Ca ions. The solid triangles represent fluorescence values obtained from the sample using Dulbecco's PBS (+) containing Mg and Ca ions. […]

[2] = hemolyzed, 0.3 mM, 60 min, 37° C., threshold value 198 (Gastric cancer)
[3] = hemolyzed, 0.3 mM, 60 min, 37° C., threshold value 203 (Fibrosarcoma)
[4] = hemolyzed, 0.3 mM, 60 min, 37° C., threshold value 207 (Colon adenocarcinoma)
[5] = hemolyzed, 0.3 mM, 60 min, 37° C., threshold value 212 (Alveolar epithelial cancer)
[6] = hemolyzed, 0.3 mM, 60 min, 37° C., threshold value 265 (Prostate cancer)
[7] = hemolyzed, 0.3 mM, 60 min, 37° C., threshold value 268 (Breast adenocarcinoma)
[8] = hemolyzed, 0.1 mM, 37° C., 60 min
[9] = hemolyzed, 0.3 mM, 37° C., 60 min (concentration series)
[10] = hemolyzed, 1 mM, 37° C., 60 min
[11] = hemolyzed, 4° C., 0.3 mM, 60 min
[12] = hemolyzed, 23° C., 0.3 mM, 60 min
[13] = hemolyzed, 37° C., 0.3 mM, 60 min (temperature series)
[14] = hemolyzed, 30 min, 0.3 mM, 37° C.
[15] = hemolyzed, 60 min, 0.3 mM, 37° C. (time series)
[16] = hemolyzed, 120 min, 0.3 mM, 37° C.
[17] = without hemolyzing treatment, 0.1 mM, 37° C., 60 min
[18] = without hemolyzing treatment, 0.3 mM, 37° C., 60 min (concentration series)
[19] = without hemolyzing treatment, 1 mM, 37° C., 60 min
[20] = without hemolyzing treatment, 4° C., 0.3 mM, 60 min
[21] = without hemolyzing treatment, 23° C., 0.3 mM, 60 min
[22] = without hemolyzing treatment, 37° C., 0.3 mM, 60 min (temperature series)
[23] = without hemolyzing treatment, 30 min, 0.3 mM, 37° C.
[24] = without hemolyzing treatment, 60 min, 0.3 mM, 37° C. (time series)
[25] = without hemolyzing treatment, 120 min, 0.3 mM, 37° C.

NCC(=O)CCC(=O)O [aminolevulinic acid, 5-amino-4-oxopentanoic acid]
Negative rate (Blood cells (fresh blood)) (Blood cells; [2]): 95.2% | Positive rate (Blood cells (fresh blood)) (Blood cells; [2]): 4.8% | Negative rate (Blood cells (fresh blood)) (Blood cells; [3]): 95.2% | Positive rate (Blood cells (fresh blood)) (Blood cells; [3]): 4.8% | Negative rate (Blood cells (fresh blood)) (Blood cells; [4]): 95.2% | Positive rate (Blood cells (fresh blood)) (Blood cells; [4]): 4.8% | Negative rate (Blood cells (fresh blood)) (Blood cells; [5]): 95.2% | Positive rate (Blood cells (fresh blood)) (Blood cells; [5]): 4.8% | Negative rate (Blood cells (fresh blood)) (Blood cells; [6]): 95.2% | Positive rate (Blood cells (fresh blood)) (Blood cells; [6]): 4.8% | Negative rate (Blood cells (fresh blood)) (Blood cells; [7]): 95.6% | Positive rate (Blood cells (fresh blood)) (Blood cells; [7]): 4.4% | Negative rate (Blood cells) (Blood cells; [8]): 98% | Positive rate (Blood cells) (Blood cells; [8]): 2% | Negative rate (Blood cells) (Blood cells; [9]): 93% | Positive rate (Blood cells) (Blood cells; [9]): 7% | Negative rate (Blood cells) (Blood cells; [10]): 87% | Positive rate (Blood cells) (Blood cells; [10]): 13% | Negative rate (Blood cells) (Blood cells; [11]): 98% | Positive rate (Blood cells) (Blood cells; [11]): 2% | Negative rate (Blood cells) (Blood cells; [12]): 98% | Positive rate (Blood cells) (Blood cells; [12]): 2% | Negative rate (Blood cells) (Blood cells; [13]): 88% | Positive rate (Blood cells) (Blood cells; [13]): 12% | Negative rate (Blood cells) (Blood cells; [14]): 98% | Positive rate (Blood cells) (Blood cells; [14]): 2% | Negative rate (Blood cells) (Blood cells; [15]): 100% | Positive rate (Blood cells) (Blood cells; [15]): 0% | Negative rate (Blood cells) (Blood cells; [16]): 94% | Positive rate (Blood cells) (Blood cells; [16]): 6% | Negative rate (Blood cells) (Blood cells; [17]): 98% | Positive rate (Blood cells) (Blood cells; [17]): 2% | Negative rate (Blood cells) (Blood cells; [18]): 99% | Positive rate (Blood cells) (Blood cells; [18]): 1% | Negative rate (Blood cells) (Blood cells; [19]): 93% | Positive rate (Blood cells) (Blood cells; [19]): 7% | Negative rate (Blood cells) (Blood cells; [20]): 98% | Positive rate (Blood cells) (Blood cells; [20]): 2% | Negative rate (Blood cells) (Blood cells; [21]): 100% | Positive rate (Blood cells) (Blood cells; [21]): 0% | Negative rate (Blood cells) (Blood cells; [22]): 100% | Positive rate (Blood cells) (Blood cells; [22]): 0% | Negative rate (Blood cells) (Blood cells; [23]): 98% | Positive rate (Blood cells) (Blood cells; [23]): 2% | Negative rate (Blood cells) (Blood cells; [24]): 99% | Positive rate (Blood cells) (Blood cells; [24]): 1% | Negative rate (Blood cells) (Blood cells; [25]): 86% | Positive rate (Blood cells) (Blood cells; [25]): 14% | reactivity of aminolevulinic acid (fluorescence values of the cell suspension) ([1]; 15 to 90 minutes, Dulbecco's PBS (+) containing Mg and Ca ions versus PBS (−), FIG. 7): can be improved | reactivity of aminolevulinic acid (fluorescence values of the cell suspension) ([1]; Dulbecco's PBS (+) with Mg and Ca ions plus 10 μM ENDO-PORTER, FIG. 8): further improves the reactivity
